Assay results published in PubChem BioAssay AID330 (DTP/NCI, 2004).
“And” between values parts separate entries of the source, which are not always exact repeats. Equal entries are not always repeated. Inconclusive results and toxic doses are left out.

Tested on: P388 leukemia ip, CD2F1 mice, survival T/C
Test: NCI In Vivo Anticancer Drug Screen. Data for tumor model P388 Leukemia (intraperitoneal) in CD2F1 (CDF1) mice
Conditions: endpoint: median survival time, higher = longer survival
Procedure, shortened: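 Mice carrying the transplanted tumor received test compound or vehicle. Survival was recorded in each group, and the value is the treated-group measurement divided by that of the vehicle-treated control group.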

[1] = dose: 100.0 mg/kg/injection, schedule: Q01DX001 (ip), vehicle: Klucel (hydroxypropylcellulose) (HPC)
[2] = dose: 200.0 mg/kg/injection, schedule: Q01DX001 (ip), vehicle: Klucel (hydroxypropylcellulose) (HPC)
[3] = dose: 400.0 mg/kg/injection, schedule: Q01DX001 (ip), vehicle: Klucel (hydroxypropylcellulose) (HPC)
[4] = dose: 50.0 mg/kg/injection, schedule: Q01DX009 (ip), vehicle: saline with Tween-80
[5] = dose: 100.0 mg/kg/injection, schedule: Q01DX009 (ip), vehicle: saline with Tween-80
[6] = dose: 200.0 mg/kg/injection, schedule: Q01DX009 (ip), vehicle: saline with Tween-80
[7] = dose: 60.0 mg/kg/injection, schedule: Q01DX005 (ip), vehicle: Klucel (hydroxypropylcellulose) (HPC)
[8] = dose: 120.0 mg/kg/injection, schedule: Q01DX005 (ip), vehicle: Klucel (hydroxypropylcellulose) (HPC)
[9] = dose: 240.0 mg/kg/injection, schedule: Q01DX005 (ip), vehicle: Klucel (hydroxypropylcellulose) (HPC)
[10] = dose: 50.0 mg/kg/injection, schedule: Q01DX005 (ip), vehicle: Klucel (hydroxypropylcellulose) (HPC)
[11] = dose: 50.0 mg/kg/injection, schedule: Q01DX005 (ip), vehicle: saline with Tween-80
[12] = dose: 100.0 mg/kg/injection, schedule: Q04DX002 (ip), vehicle: saline
[13] = dose: 200.0 mg/kg/injection, schedule: Q04DX002 (ip), vehicle: saline
[14] = dose: 400.0 mg/kg/injection, schedule: Q04DX002 (ip), vehicle: saline

C=CC1(C)CCC2C(=CCC3C(C)(COC4OC(CO)C(O)C(O)C4O)C(O)CCC23C)C1 (centres undefined)
T/C (dose: 3.0 mg/kg/injection, schedule: Q01DX009 (ip), vehicle: Klucel (hydroxypropylcellulose) (HPC)): 100 % of control | T/C (dose: 6.0 mg/kg/injection, schedule: Q01DX009 (ip), vehicle: Klucel (hydroxypropylcellulose) (HPC)): 94 % of control | T/C (dose: 12.0 mg/kg/injection, schedule: Q01DX009 (ip), vehicle: Klucel (hydroxypropylcellulose) (HPC)): 103 % of control | T/C (dose: 24.0 mg/kg/injection, schedule: Q01DX009 (ip), vehicle: Klucel (hydroxypropylcellulose) (HPC)): 103 % of control | T/C (dose: 48.0 mg/kg/injection, schedule: Q01DX009 (ip), vehicle: Klucel (hydroxypropylcellulose) (HPC)): 106 % of control

COc1ccc(/C=C\C(C)=N\NC(=S)Nc2ccc(Cl)cc2)cc1
T/C [1]: 103 % of control | T/C [2]: 102 % of control | T/C [3]: 103 % of control

CCOC(=N)Cc1ccccc1
T/C (dose: 25.0 mg/kg/injection, schedule: Q01DX009 (ip), vehicle: saline with Tween-80): 103 % of control | T/C [4]: 94 % of control | T/C [5]: 101 % of control | T/C [6]: 100 % of control

COC(=O)C(C)CP(=O)(OC)OC (centres undefined)
T/C (dose: 50.0 mg/kg/injection, schedule: Q01DX005 (ip), vehicle: saline): 99 % of control | T/C (dose: 100.0 mg/kg/injection, schedule: Q01DX005 (ip), vehicle: saline): 97 % of control | T/C (dose: 200.0 mg/kg/injection, schedule: Q01DX005 (ip), vehicle: saline): 99 % of control

O=C1CSC(c2cc([N+](=O)[O-])ccc2Cl)N1c1nncs1 (centres undefined)
T/C [7]: 108 % of control | T/C [8]: 105 % of control | T/C [9]: 98 % of control

O=C(CN1CCC(O)(c2ccc(F)cc2)CC1)N1CCN(C/C=C/c2ccccc2)CC1
T/C [7]: 96 % of control | T/C [8]: 95 % of control | T/C [9]: 95 % of control

Cc1cc(C)c(C(Cl)(Cl)Cl)c(C)c1Cl
T/C (dose: 6.25 mg/kg/injection, schedule: Q04DX003 (ip), vehicle: saline with Tween-80): 104 % of control | T/C (dose: 8.0 mg/kg/injection, schedule: Q04DX003 (ip), vehicle: saline with Tween-80): 90 % of control | T/C (dose: 12.0 mg/kg/injection, schedule: Q04DX003 (ip), vehicle: saline with Tween-80): 100 % of control | T/C (dose: 12.5 mg/kg/injection, schedule: Q01DX009 (ip), vehicle: saline sonified): 118 % of control | T/C (dose: 12.5 mg/kg/injection, schedule: Q04DX003 (ip), vehicle: saline with Tween-80): 118 % of control | T/C (dose: 18.0 mg/kg/injection, schedule: Q04DX003 (ip), vehicle: saline with Tween-80): 113 % of control | T/C (dose: 33.0 mg/kg/injection, schedule: Q01DX009 (ip), vehicle: saline sonified): 165 % of control | T/C (dose: 50.0 mg/kg/injection, schedule: Q01DX009 (ip), vehicle: saline sonified): 150 % of control | T/C (dose: 75.0 mg/kg/injection, schedule: Q01DX009 (ip), vehicle: saline sonified): 105 % of control

CN(Cc1nc2ccccc2[nH]1)N=O
T/C [1]: 97 % of control | T/C [2]: 107 % of control | T/C [3]: 102 % of control

CC(CNC(Cc1ccccc1)c1ccccc1)NC(Cc1ccccc1)c1ccccc1 (centres undefined)
T/C (dose: 12.5 mg/kg/injection, schedule: Q01DX005 (ip), vehicle: Klucel (hydroxypropylcellulose) (HPC)): 110 % of control | T/C (dose: 25.0 mg/kg/injection, schedule: Q01DX005 (ip), vehicle: Klucel (hydroxypropylcellulose) (HPC)): 102 % of control | T/C [10]: 105 % of control and 110 % of control

O=C1N/C(=N\O)C(F)C(NO)N1 (centres undefined)
T/C (dose: 11.25 mg/kg/injection, schedule: Q04DX002 (ip), vehicle: distilled water + Tween-80): 94 % of control | T/C (dose: 22.5 mg/kg/injection, schedule: Q04DX002 (ip), vehicle: distilled water + Tween-80): 103 % of control | T/C (dose: 45.0 mg/kg/injection, schedule: Q04DX002 (ip), vehicle: distilled water + Tween-80): 99 % of control | T/C (dose: 90.0 mg/kg/injection, schedule: Q04DX002 (ip), vehicle: distilled water + Tween-80): 103 % of control | T/C (dose: 180.0 mg/kg/injection, schedule: Q04DX002 (ip), vehicle: distilled water + Tween-80): 93 % of control | T/C (dose: 360.0 mg/kg/injection, schedule: Q04DX002 (ip), vehicle: distilled water + Tween-80): 93 % of control

O=S(=O)(c1ccccc1)N1CCCCN(S(=O)(=O)c2ccccc2)COC1
T/C [10]: 104 % of control | T/C (dose: 100.0 mg/kg/injection, schedule: Q01DX005 (ip), vehicle: Klucel (hydroxypropylcellulose) (HPC)): 102 % of control | T/C (dose: 200.0 mg/kg/injection, schedule: Q01DX005 (ip), vehicle: Klucel (hydroxypropylcellulose) (HPC)): 102 % of control

Clc1c2c(c(Cl)c3c1=Nc1ncccc1O3)=Nc1ncccc1O2
T/C [4]: 100 % of control | T/C [5]: 96 % of control | T/C [6]: 99 % of control

CC(=O)Nc1ccc(S(=O)(=O)N/N=c2/sc3ccccc3n2C)cc1N
T/C (dose: 6.25 mg/kg/injection, schedule: Q01DX009 (ip), vehicle: saline): 96 % of control | T/C (dose: 12.5 mg/kg/injection, schedule: Q01DX009 (ip), vehicle: saline): 103 % of control | T/C (dose: 25.0 mg/kg/injection, schedule: Q01DX009 (ip), vehicle: saline): 100 % of control | T/C (dose: 100.0 mg/kg/injection, schedule: Q01DX009 (ip), vehicle: saline): 88 % of control | T/C (dose: 200.0 mg/kg/injection, schedule: Q01DX009 (ip), vehicle: saline): 92 % of control

N#CSCc1cc(Cl)c(Cl)cc1Cl
T/C (dose: 25.0 mg/kg/injection, schedule: Q04DX002 (ip), vehicle: saline with Tween-80): 106 % of control | T/C (dose: 50.0 mg/kg/injection, schedule: Q04DX002 (ip), vehicle: saline with Tween-80): 106 % of control | T/C (dose: 100.0 mg/kg/injection, schedule: Q04DX002 (ip), vehicle: Klucel (hydroxypropylcellulose) (HPC)): 107 % of control | T/C (dose: 100.0 mg/kg/injection, schedule: Q04DX002 (ip), vehicle: saline with Tween-80): 100 % of control

N#CCCSC(=S)C1CCCCC1=N (centres undefined)
T/C (dose: 50.0 mg/kg/injection, schedule: Q01DX009 (ip), vehicle: saline + alcohol): 109 % of control | T/C (dose: 100.0 mg/kg/injection, schedule: Q01DX009 (ip), vehicle: saline + alcohol): 111 % of control | T/C (dose: 200.0 mg/kg/injection, schedule: Q01DX009 (ip), vehicle: saline + alcohol): 109 % of control

COc1cccc2c1[n+]([O-])c1cccc(O)c1[n+]2[O-]
T/C (dose: 1.56 mg/kg/injection, schedule: Q01DX009 (ip), vehicle: saline with Tween-80): 112 % of control | T/C (dose: 3.12 mg/kg/injection, schedule: Q01DX009 (ip), vehicle: saline with Tween-80): 109 % of control | T/C (dose: 6.25 mg/kg/injection, schedule: Q01DX009 (ip), vehicle: saline with Tween-80): 114 % of control | T/C (dose: 12.5 mg/kg/injection, schedule: Q01DX009 (ip), vehicle: saline with Tween-80): 124 % of control

O=C(Nc1ccc(CSc2ccc(Cl)cc2)o1)N1CCOCC1
T/C [11]: 107 % of control | T/C (dose: 100.0 mg/kg/injection, schedule: Q01DX005 (ip), vehicle: saline with Tween-80): 99 % of control | T/C (dose: 200.0 mg/kg/injection, schedule: Q01DX005 (ip), vehicle: saline with Tween-80): 98 % of control

Cc1ccc(NC(=O)N(C)C)c(C)c1
T/C [7]: 97 % of control | T/C [8]: 97 % of control | T/C [9]: 94 % of control

C=C1CC[C@H]2C(C)=CC[C@@H]3[C@H](OC(=O)[C@H]3CN3CCN(c4ccc(C)c([N+](=O)[O-])c4)CC3)[C@@H]12
T/C [12]: 97 % of control | T/C [13]: 99 % of control | T/C [14]: 96 % of control

Cc1ccc(SC(=O)N2CCN(C(=O)Sc3ccc(C)cc3)CC2)cc1
T/C (dose: 50.0 mg/kg/injection, schedule: Q01DX009 (ip), vehicle: Klucel (hydroxypropylcellulose) (HPC)): 93 % of control | T/C (dose: 100.0 mg/kg/injection, schedule: Q01DX009 (ip), vehicle: Klucel (hydroxypropylcellulose) (HPC)): 89 % of control

CS1=C2C(=O)CC(C)(C)CC2=Nc2ccccc21 (centres undefined)
T/C (dose: 12.5 mg/kg/injection, schedule: Q01DX005 (ip), vehicle: saline with Tween-80): 104 % of control | T/C (dose: 25.0 mg/kg/injection, schedule: Q01DX005 (ip), vehicle: saline with Tween-80): 104 % of control | T/C [11]: 99 % of control and 100 % of control

O=C(/C=C/c1ccc([N+](=O)[O-])cc1)Cc1ccccc1
T/C [12]: 97 % of control | T/C [13]: 104 % of control | T/C [14]: 100 % of control

COC1(OC)C(C#N)(C#N)C2(C(=O)Nc3ccccc32)C1(OC)OC (centres undefined)
T/C [7]: 97 % of control | T/C [8]: 101 % of control | T/C [9]: 103 % of control
